Read-outs that look alike come from different tables or passages of the source.
Experiments:
lambsquarters = experiment: Test B pre-/postemergence herbicide test; assay type: in vivo, Chenopodium album; settings: Chenopodium album, 336 h; for pest or weed control at 125 g/ha: 125 g ai/ha; for pest or weed control at 500 g/ha: 500 g ai/ha
In short: (§1)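 Seeds were planted and treated preemergence with compounds formulated in a non-phytotoxic solvent mixture containing surfactant, while plants at the 1- to 4-leaf stage (2 to 18 cm) received postemergence sprays. Flooded paddy plants were grown to the 2-leaf stage. After 13 to 15 days in a greenhouse, injury was visually rated 0–100 against untreated controls.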

wheat = experiment: Test B postemergence herbicide test; assay type: in vivo, Triticum aestivum; settings: Triticum aestivum, post-emergence, 336 h, postemergence, visual rating, scale 0 (no effect) to 100 (complete control), read-out: Wheat plant response rating
In short: (§2)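 Postemergence plants were sprayed with formulated test chemicals at 2 to 18 cm height (1- to 4-leaf stage); paddy species were grown to the 2-leaf stage. After 13 to 15 days in a greenhouse, injury was rated visually against untreated controls on a 0–100 scale (0 = no effect, 100 = complete control).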

wild oat = experiment: Test B postemergence herbicide test; assay type: in vivo, Avena fatua; settings: Avena fatua, post-emergence, 336 h, postemergence, visual rating, scale 0 (no effect) to 100 (complete control), read-out: Oat, Wild plant response rating
In short: as §2

blackgrass = experiment: Test B postemergence herbicide test; assay type: in vivo, Alopecurus myosuroides; settings: Alopecurus myosuroides, post-emergence, 336 h, postemergence, visual rating, scale 0 (no effect) to 100 (complete control), read-out: Blackgrass plant response rating
In short: (§3)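 Scale 0–100: zero equals no visible effect, 100 complete control, judged by eye relative to controls. Timing: 13 to 15 days in greenhouse post-treatment. Growth stage at spraying: two leaves (paddy) or one to four leaves, 2–18 cm (postemergence).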

[1] = test system: small flower umbrella sedge; experiment: Test B flooded paddy test; assay type: in vivo, Cyperus difformis; settings: Cyperus difformis, 336 h, 1000 g ai/ha, visual rating, scale 0 to 100 (0 no effect, 100 complete control), 13 to 15 days, read-out: Sedge, Umbrella plant response rating
In short: as §3

barnyardgrass [2] = experiment: Test B pre-/postemergence herbicide test; assay type: in vivo, Echinochloa crus-galli; settings: Echinochloa crus-galli; for pest or weed control at 125 g/ha: 125 g ai/ha; for pest or weed control at 500 g/ha: 500 g ai/ha
In short: (§4)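 Formulation: non-phytotoxic solvent mix with surfactant. Timing: preemergence on seed and postemergence on 2–18 cm plants, applied concurrently. Readout after 13–15 d greenhouse: visual 0–100 control rating against controls.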

ducksalad = experiment: Test B flooded paddy test; assay type: in vivo, Heteranthera limosa; settings: Heteranthera limosa, 336 h, 1000 g ai/ha, visual rating, scale 0 to 100 (0 no effect, 100 complete control), 13 to 15 days, read-out: Ducksalad plant response rating
In short: as §3

barnyardgrass [3] = experiment: Test B flooded paddy test; assay type: in vivo, Echinochloa crus-galli; settings: Echinochloa crus-galli, 336 h, 1000 g ai/ha, visual rating, scale 0 to 100 (0 no effect, 100 complete control), 13 to 15 days, read-out: Barnyardgrass plant response rating
In short: as §3

cocklebur = experiment: Test B pre-/postemergence herbicide test; assay type: in vivo, Xanthium strumarium; settings: Xanthium strumarium; for pest or weed control at 125 g/ha: 125 g ai/ha; for pest or weed control at 500 g/ha: 500 g ai/ha
In short: as §4

giant foxtail = experiment: Test B pre-/postemergence herbicide test; assay type: in vivo, Setaria faberi; settings: Setaria faberi, 336 h; for pest or weed control at 125 g/ha: 125 g ai/ha; for pest or weed control at 500 g/ha: 500 g ai/ha
In short: as §1

morningglory = experiment: Test B pre-/postemergence herbicide test; assay type: in vivo, Ipomoea coccinea; settings: Ipomoea, 336 h; for pest or weed control at 125 g/ha: 125 g ai/ha; for pest or weed control at 500 g/ha: 500 g ai/ha
In short: as §4

pigweed = experiment: Test B pre-/postemergence herbicide test; assay type: in vivo, Amaranthus retroflexus; settings: Amaranthus retroflexus, 336 h; for pest or weed control at 125 g/ha: 125 g ai/ha; for pest or weed control at 500 g/ha: 500 g ai/ha
In short: as §1

large crabgrass = experiment: Test B pre-/postemergence herbicide test; assay type: in vivo, Digitaria sanguinalis; settings: Digitaria sanguinalis; for pest or weed control at 125 g/ha: 125 g ai/ha; for pest or weed control at 500 g/ha: 500 g ai/ha
In short: as §1

corn = experiment: Test B pre-/postemergence herbicide test; assay type: in vivo, Zea mays; settings: Zea mays; for plant injury at 125 g/ha: 125 g ai/ha
In short: as §1

rice = experiment: Test B flooded paddy test; assay type: in vivo, Oryza sativa; settings: Oryza sativa, 336 h, 1000 g ai/ha, visual rating, scale 0 to 100 (0 no effect, 100 complete control), 13 to 15 days, read-out: Rice plant response rating
In short: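 Visual ratings, 0 (no effect) to 100 (complete control), made versus controls after 13–15 d greenhouse. Paddy plants treated at 2-leaf stage; postemergence plants at 1- to 4-leaf stage, 2–18 cm tall.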

Surinam grass = experiment: Test B pre-/postemergence herbicide test; assay type: in vivo, Urochloa decumbens; settings: Urochloa decumbens; for pest or weed control at 125 g/ha: 125 g ai/ha; for pest or weed control at 500 g/ha: 500 g ai/ha
In short: as §1

[4] = post-emergence, postemergence, visual rating, scale 0 (no effect) to 100 (complete control), read-out: Lambsquarters plant response rating
[5] = post-emergence, postemergence, visual rating, scale 0 (no effect) to 100 (complete control), read-out: Barnyardgrass plant response rating
[6] = post-emergence, postemergence, visual rating, scale 0 (no effect) to 100 (complete control), read-out: Cocklebur plant response rating
[7] = post-emergence, postemergence, visual rating, scale 0 (no effect) to 100 (complete control), read-out: Foxtail, Giant plant response rating
[8] = post-emergence, postemergence, visual rating, scale 0 (no effect) to 100 (complete control), read-out: Morningglory plant response rating
[9] = post-emergence, postemergence, visual rating, scale 0 (no effect) to 100 (complete control), read-out: Pigweed plant response rating
[10] = post-emergence, postemergence, visual rating, scale 0 (no effect) to 100 (complete control), read-out: Crabgrass, Large plant response rating
[11] = post-emergence, postemergence, visual rating, scale 0 (no effect) to 100 (complete control), read-out: Surinam Grass plant response rating

## CCc1nn(C(C)(C)C)cc1C(=O)Nc1cccc(C(=O)N(CC)CC)c1 [Compound 182, N-[3-[(diethylamino)carbonyl]phenyl]-1-(1,1-dimethylethyl)-3-ethyl-1H-pyrazole-4-carboxamide]
lambsquarters; [4]
  pest or weed control at 125 g/ha: 60%
  pest or weed control at 500 g/ha: 70%
lambsquarters; pre-emergence, 0 = no effect, 100 = complete control, read-out: Lambsquarters plant response rating (0 to 100 scale)
  pest or weed control at 125 g/ha: 20%
lambsquarters; pre-emergence, visual rating 0-100, 0 no effect, 100 complete control, read-out: Plant response rating, Lambsquarters
  pest or weed control at 500 g/ha: 100%
wheat; 125 g ai/ha
  plant injury at 125 g/ha: 0%
wheat; 500 g ai/ha
  plant injury at 500 g/ha: 10%
Wild oat; 125 g ai/ha
  pest or weed control at 125 g/ha: 20%
Wild oat; 500 g ai/ha
  pest or weed control at 500 g/ha: 30%
blackgrass; 125 g ai/ha
  pest or weed control at 125 g/ha: 0%
blackgrass; 500 g ai/ha
  pest or weed control at 500 g/ha: 0%
[1]
  pest or weed control at 1000 g/ha: 80%
Barnyardgrass [2]; [5]
  pest or weed control at 125 g/ha: 30%
  pest or weed control at 500 g/ha: 50%
Barnyardgrass [2]; pre-emergence, 0 = no effect, 100 = complete control, read-out: Barnyardgrass plant response rating (0 to 100 scale)
  pest or weed control at 125 g/ha: 20%
Barnyardgrass [2]; pre-emergence, visual rating 0-100, 0 no effect, 100 complete control, read-out: Plant response rating, Barnyardgrass
  pest or weed control at 500 g/ha: 80%
ducksalad
  pest or weed control at 1000 g/ha: 60%
Barnyardgrass [3]
  pest or weed control at 1000 g/ha: 40%
cocklebur; [6]
  pest or weed control at 125 g/ha: 50%
  pest or weed control at 500 g/ha: 60%
cocklebur; pre-emergence, 0 = no effect, 100 = complete control, read-out: Cocklebur plant response rating (0 to 100 scale)
  pest or weed control at 125 g/ha: 0%
cocklebur; pre-emergence, visual rating 0-100, 0 no effect, 100 complete control, read-out: Plant response rating, Cocklebur
  pest or weed control at 500 g/ha: 0%
Giant foxtail; [7]
  pest or weed control at 125 g/ha: 0%
  pest or weed control at 500 g/ha: 20%
Giant foxtail; pre-emergence, 0 = no effect, 100 = complete control, read-out: Foxtail, Giant plant response rating (0 to 100 scale)
  pest or weed control at 125 g/ha: 30%
Giant foxtail; pre-emergence, visual rating 0-100, 0 no effect, 100 complete control, read-out: Plant response rating, Foxtail, Giant
  pest or weed control at 500 g/ha: 100%
morningglory; [8]
  pest or weed control at 125 g/ha: 50%
  pest or weed control at 500 g/ha: 70%
morningglory; pre-emergence, 0 = no effect, 100 = complete control, read-out: Morningglory plant response rating (0 to 100 scale)
  pest or weed control at 125 g/ha: 10%
morningglory; pre-emergence, visual rating 0-100, 0 no effect, 100 complete control, read-out: Plant response rating, Morningglory
  pest or weed control at 500 g/ha: 30%
pigweed; [9]
  pest or weed control at 125 g/ha: 50%
  pest or weed control at 500 g/ha: 70%
pigweed; pre-emergence, 0 = no effect, 100 = complete control, read-out: Pigweed plant response rating (0 to 100 scale)
  pest or weed control at 125 g/ha: 100%
pigweed; pre-emergence, visual rating 0-100, 0 no effect, 100 complete control, read-out: Plant response rating, Pigweed
  pest or weed control at 500 g/ha: 100%
Large crabgrass; [10]
  pest or weed control at 125 g/ha: 20%
  pest or weed control at 500 g/ha: 30%
Large crabgrass; pre-emergence, 0 = no effect, 100 = complete control, read-out: Crabgrass, Large plant response rating (0 to 100 scale)
  pest or weed control at 125 g/ha: 70%
Large crabgrass; pre-emergence, visual rating 0-100, 0 no effect, 100 complete control, read-out: Plant response rating, Crabgrass, Large
  pest or weed control at 500 g/ha: 100%
corn; post-emergence, postemergence, visual rating, scale 0 (no effect) to 100 (complete control), read-out: Corn plant response rating
  plant injury at 125 g/ha: 30%
corn; post-emergence, postemergence, 500 g ai/ha, visual rating, scale 0 (no effect) to 100 (complete control), read-out: Corn plant response rating
  plant injury at 500 g/ha: 30%
corn; pre-emergence, 0 = no effect, 100 = complete control, read-out: Corn plant response rating (0 to 100 scale)
  plant injury at 125 g/ha: 0%
corn; pre-emergence, 500 g ai/ha, visual rating 0-100, 0 no effect, 100 complete control
  Corn plant response rating (crop injury, 0 = no effect, 100 = complete kill) at 500 g/ha: 0%
rice
  plant injury at 1000 g/ha: 0%
Surinam grass; [11]
  pest or weed control at 125 g/ha: 10%
  pest or weed control at 500 g/ha: 20%
Surinam grass; pre-emergence, 0 = no effect, 100 = complete control, read-out: Surinam Grass plant response rating (0 to 100 scale)
  pest or weed control at 125 g/ha: 20%
Surinam grass; pre-emergence, visual rating 0-100, 0 no effect, 100 complete control, read-out: Plant response rating, Surinam Grass
  pest or weed control at 500 g/ha: 60%

From patent US20060069132A1, “Azolecarboxamide herbicides” (priority 2004, published 2006)
